# Results as given in PubChem BioAssay (NCI).
#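 Tested at 5 concentrations; 48 h exposure; 96-well plates; endpoints linearly interpolated, else capped at highest concentration. GI50: concentration for 50% inhibition of growth. The concentration for full growth arrest is given as TGI.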
# Assays:
# Test in all cases: NCI-60 cell line screen, 48 h
# [1] = system: NCI-H460 lung
# [2] = system: NCI/ADR-RES ovarian
# [3] = system: SNB-75 CNS
# [4] = system: 786-0 renal
# [5] = system: HOP-92 NSCLC
# [6] = system: SR leukemia
# [7] = system: COLO 205 colon
# [8] = system: OVCAR-3 ovarian
# [9] = system: BT-549 breast
# [10] = system: UACC-257 melanoma
# [11] = system: HOP-62 NSCLC
# [12] = system: TK-10 renal
# [13] = system: CCRF-CEM leukemia
# [14] = system: HCT-116 colon
# [15] = system: HCT-15 colon
# [16] = system: T-47D breast
# [17] = system: NCI-H522 lung
# [18] = system: U251 CNS
# [19] = system: OVCAR-4 ovarian
# [20] = system: A498 renal
# [21] = system: IGROV1 ovarian
# [22] = system: OVCAR-8 ovarian
# [23] = system: SF-539 CNS
# [24] = system: LOX IMVI melanoma
# [25] = system: MDA-MB-231 breast
# [26] = system: SK-MEL-28 melanoma
# [27] = system: SK-MEL-2 melanoma
# [28] = system: MOLT-4 leukemia
# [29] = system: K-562 leukemia
# [30] = system: RXF 393 renal
# [31] = system: UACC-62 melanoma
# [32] = system: MALME-3M melanoma
# [33] = system: SF-268 CNS
# [34] = system: M14 melanoma
# [35] = system: UO-31 renal
# [36] = system: EKVX NSCLC
# [37] = system: KM12 colon
# [38] = system: SK-MEL-5 melanoma
# [39] = system: DU-145 prostate
# [40] = system: MCF7 breast
# [41] = system: HT29 colon
# [42] = system: ACHN renal
# [43] = system: CAKI-1 renal
# [44] = system: NCI-H226 lung
# [45] = system: SW-620 colon
# [46] = system: PC-3 prostate
# [47] = system: RPMI-8226 leukemia
# [48] = system: SF-295 CNS
# [49] = system: HL-60(TB) leukemia
# [50] = system: A549 NSCLC
# [51] = system: MDA-MB-435
# [52] = system: SNB-19 CNS
# [53] = system: NCI-H23 lung
# [54] = system: SK-OV-3 ovarian
# [55] = system: HS 578T breast
# [56] = system: SN12C renal
# [57] = system: OVCAR-5 ovarian
# [58] = system: HCC-2998 colon
# [59] = system: MDA-N
compound,measurement,setting,value
CN1CC[C@H](c2c(O)cc(O)c3c(=O)cc(-c4ccccc4Cl)oc23)[C@H](O)C1,TGI,[1],> 10 µM
same,GI50,[2],0.116 µM
same,TGI,[2],> 10 µM
same,GI50,[3],0.053 µM
same,TGI,[3],0.155 µM
same,GI50,[4],0.0717 µM
same,TGI,[4],> 10 µM
same,GI50,[5],0.0693 µM
same,TGI,[5],0.524 µM
same,GI50,[6],0.0045 µM
same,TGI,[6],> 2.67 µM
same,GI50,[7],0.0433 µM
same,TGI,[7],0.209 µM
same,GI50,[8],0.0546 µM
same,TGI,[8],> 10 µM
same,GI50,[9],0.0807 µM
same,TGI,[9],0.599 µM
same,GI50,[10],0.128 µM
same,TGI,[10],0.91 µM
same,GI50,[11],0.0515 µM
same,TGI,[11],> 2.62 µM
same,GI50,[12],0.0999 µM
same,TGI,[12],> 10 µM
same,TGI,[13],> 10 µM
same,GI50,[14],0.0123 µM
same,TGI,[14],> 10 µM
same,TGI,[15],> 10 µM
same,GI50,[16],0.0737 µM
same,TGI,[16],> 2.84 µM
same,GI50,[17],0.102 µM
same,TGI,[17],0.847 µM
same,TGI,[18],> 10 µM
same,GI50,[19],0.14 µM
same,TGI,[19],1.54 µM
same,GI50,[20],0.0215 µM
same,TGI,[20],0.062 µM
same,GI50,[21],0.0414 µM
same,TGI,[21],> 10 µM
same,GI50,[22],0.0723 µM
same,TGI,[22],> 10 µM
same,GI50,[23],0.139 µM
same,TGI,[23],0.542 µM
same,GI50,[24],0.00602 µM
same,TGI,[24],> 10 µM
same,GI50,[25],0.23 µM
same,TGI,[25],> 10 µM
same,TGI,[26],1.3 µM
same,GI50,[27],0.0668 µM
same,TGI,[27],0.26 µM
same,GI50,[28],0.076 µM
same,TGI,[28],> 10 µM
same,GI50,[29],0.225 µM
same,TGI,[29],> 10 µM
same,GI50,[30],0.0204 µM
same,TGI,[30],0.0671 µM
same,GI50,[31],0.0515 µM
same,TGI,[31],0.164 µM
same,GI50,[32],0.154 µM
same,TGI,[32],0.594 µM
same,GI50,[33],0.0647 µM
same,GI50,[34],0.0696 µM
same,TGI,[34],0.293 µM
same,GI50,[35],0.0662 µM
same,TGI,[35],> 10 µM
same,TGI,[36],0.559 µM
same,TGI,[37],> 10 µM
same,GI50,[38],0.052 µM
same,TGI,[38],0.159 µM
same,GI50,[39],0.075 µM
same,TGI,[39],> 10 µM
same,GI50,[40],0.028 µM
same,TGI,[40],> 10 µM
same,TGI,[41],> 10 µM
same,GI50,[42],0.0316 µM
same,TGI,[42],> 10 µM
same,TGI,[43],> 10 µM
same,GI50,[44],0.0695 µM
same,TGI,[44],0.46 µM
same,GI50,[45],0.0572 µM
same,TGI,[45],> 10 µM
same,GI50,[46],0.0776 µM
same,TGI,[46],> 2.59 µM
same,GI50,[47],0.076 µM
same,TGI,[47],> 2.32 µM
same,GI50,[48],0.21 µM
same,TGI,[48],0.625 µM
same,GI50,[49],0.0508 µM
same,TGI,[49],> 2.49 µM
same,GI50,[50],0.0946 µM
same,TGI,[50],> 10 µM
same,GI50,[51],0.0712 µM
same,TGI,[51],0.26 µM
same,GI50,[52],0.0647 µM
same,TGI,[52],> 10 µM
same,GI50,[53],0.0793 µM
same,TGI,[53],0.609 µM
same,GI50,[54],0.49 µM
same,TGI,[54],> 10 µM
same,GI50,[55],0.0618 µM
same,TGI,[55],0.398 µM
same,GI50,[56],0.0703 µM
same,TGI,[56],> 10 µM
same,GI50,[57],0.0533 µM
same,TGI,[57],> 10 µM
same,GI50,[58],0.124 µM
same,TGI,[58],0.761 µM
COc1cc(OC)c2c(=O)c3cccc(C)c3n(C)c2c1,TGI,[1],> 100 µM
same,TGI,[2],> 100 µM
same,TGI,[3],> 100 µM
same,TGI,[4],> 100 µM
same,TGI,[5],> 100 µM
same,TGI,[6],> 100 µM
same,TGI,[7],> 100 µM
same,TGI,[8],> 100 µM
same,TGI,[9],> 100 µM
same,TGI,[10],> 100 µM
same,TGI,[11],> 100 µM
same,TGI,[12],> 100 µM
same,TGI,[13],> 100 µM
same,TGI,[14],> 100 µM
same,TGI,[15],> 100 µM
same,TGI,[17],> 100 µM
same,TGI,[18],> 100 µM
same,TGI,[19],> 100 µM
same,TGI,[20],> 100 µM
same,TGI,[21],> 100 µM
same,TGI,[22],> 100 µM
same,TGI,[23],> 100 µM
same,TGI,[24],> 100 µM
same,TGI,[25],> 100 µM
same,TGI,[26],> 100 µM
same,TGI,[27],> 100 µM
same,TGI,[28],> 100 µM
same,TGI,[29],59.4 µM
same,TGI,[30],> 100 µM
same,TGI,[31],> 100 µM
same,TGI,[32],> 100 µM
same,TGI,[33],> 100 µM
same,TGI,[34],> 100 µM
same,TGI,[36],> 100 µM
same,TGI,[37],> 100 µM
same,TGI,[38],60.6 µM
same,TGI,[39],> 100 µM
same,TGI,[40],> 100 µM
same,TGI,[41],> 100 µM
same,TGI,[42],> 100 µM
same,TGI,[43],> 100 µM
same,TGI,[44],> 100 µM
same,TGI,[45],> 100 µM
same,TGI,[46],> 100 µM
same,TGI,[59],> 100 µM
same,TGI,[47],58.9 µM
same,TGI,[48],> 100 µM
same,TGI,[49],> 100 µM
same,TGI,[50],> 100 µM
same,TGI,[51],> 100 µM
same,TGI,[52],> 100 µM
same,TGI,[53],> 100 µM
same,TGI,[54],> 100 µM
same,TGI,[55],> 100 µM
same,TGI,[56],> 100 µM
same,TGI,[57],> 100 µM
same,TGI,[58],> 100 µM
O=[N+]1[C@H](c2ccccc2)[C@H](c2ccccc2)N1[O-],TGI,[1],43.2 µM
same,TGI,[2],35.5 µM
same,TGI,[3],37.2 µM
same,TGI,[4],26.8 µM
same,TGI,[5],30.2 µM
same,TGI,[6],37.7 µM
same,TGI,[7],37.9 µM
same,TGI,[8],30.1 µM
same,TGI,[10],26.3 µM
same,TGI,[11],40.7 µM
same,TGI,[12],30.9 µM
same,TGI,[13],36.3 µM
same,TGI,[14],30.6 µM
same,TGI,[15],24.7 µM
same,TGI,[17],24.2 µM
same,TGI,[18],33.5 µM
same,TGI,[19],59.2 µM
same,TGI,[20],67.3 µM
same,TGI,[21],26.8 µM
same,TGI,[22],32.7 µM
same,TGI,[23],32.7 µM
same,TGI,[24],29.2 µM
same,TGI,[25],38.2 µM
same,TGI,[26],30.5 µM
same,TGI,[27],32.8 µM
same,TGI,[28],55.2 µM
same,TGI,[29],> 100 µM
same,TGI,[30],28.3 µM
same,TGI,[31],32.3 µM
same,TGI,[32],32 µM
same,TGI,[33],58.7 µM
same,TGI,[34],29.6 µM
same,TGI,[35],28.5 µM
same,TGI,[36],33.8 µM
same,TGI,[37],45.3 µM
same,TGI,[38],30.9 µM
same,TGI,[39],30.1 µM
same,TGI,[40],30.5 µM
same,TGI,[41],33.1 µM
same,TGI,[42],32.3 µM
same,TGI,[43],19.7 µM
same,TGI,[44],38.9 µM
same,TGI,[45],28.2 µM
same,TGI,[46],31.6 µM
same,TGI,[59],30.7 µM
same,TGI,[47],25.4 µM
same,TGI,[48],38.6 µM
same,TGI,[49],5.48 µM
same,TGI,[50],41.1 µM
same,TGI,[51],34.3 µM
same,TGI,[52],35.1 µM
same,TGI,[53],32 µM
same,TGI,[54],96.5 µM
same,TGI,[55],> 100 µM
same,TGI,[56],32.4 µM
same,TGI,[57],35.8 µM
